Assay results from the kinase profiling compilation of Christmann-Franck et al. (2016).
Values joined by “and” are separate entries in the source; they are usually repeats but may differ in a detail not shown here. Equal values may be shown once.

Assays:
Test in all cases: radiometric filter-binding kinase assay, Kinase HotSpot
Settings in all cases: compound 0.5 µM; ATP 10 µM
[1] = target: NUAK2 (human) (UniProt Q9H093)
[2] = target: MAP3K10 (human) (UniProt Q02779)
[3] = target: PAK4 (human) (UniProt O96013)
[4] = target: EPHA4 (human) (UniProt P54764)
[5] = target: AKT2 (human) (UniProt P31751)
[6] = target: CAMKK1 (human) (UniProt Q8N5S9)
[7] = target: PRKG1 (human) (UniProt Q13976)
[8] = target: STK10 (human) (UniProt O94804)
[9] = target: AURKB (human) (UniProt Q96GD4)
[10] = target: WNK3 (human) (UniProt Q9BYP7)
[11] = target: TSSK2 (human) (UniProt Q96PF2)
[12] = target: BRAF (human) (UniProt P15056)
[13] = target: IKBKE (human) (UniProt Q14164)
[14] = target: AXL (human) (UniProt P30530)
[15] = target: ERBB4 (human) (UniProt Q15303)
[16] = target: PRKACG (human) (UniProt P22612)
[17] = target: TAOK3 (human) (UniProt Q9H2K8)
[18] = target: RPS6KA3 KD1 KD2 (human) (UniProt P51812)
[19] = target: MAPK11 (human) (UniProt Q15759)
[20] = target: PAK6 (human) (UniProt Q9NQU5)
[21] = target: STK39 (human) (UniProt Q9UEW8)
[22] = target: SRPK2 (human) (UniProt P78362)
[23] = target: MAPKAPK2 (human) (UniProt P49137)
[24] = target: MAPK3 (human) (UniProt P27361)
[25] = target: CLK2 (human) (UniProt P49760)
[26] = target: MELK (human) (UniProt Q14680)
[27] = target: TEK (human) (UniProt Q02763)
[28] = target: SGK2 (human) (UniProt Q9HBY8)
[29] = target: KIT (human) (UniProt P10721)
[30] = target: PIM1 (human) (UniProt P11309)
[31] = target: MAP3K9 (human) (UniProt P80192)
[32] = target: CDK3 CCNE1 (human) (UniProt Q00526+P24864)
[33] = target: CDK6 CCND1 (human) (UniProt Q00534+P24385)
[34] = target: MST1R (human) (UniProt Q04912)
[35] = target: HIPK4 (human) (UniProt Q8NE63)
[36] = target: NUAK1 (human) (UniProt O60285)
[37] = target: PRKD2 (human) (UniProt Q9BZL6)
[38] = target: CSNK1A1 (human) (UniProt P48729)
[39] = target: CSNK2A2 (human) (UniProt P19784)
[40] = target: LRRK2 (human) (UniProt Q5S007)
[41] = target: STK25 (human) (UniProt O00506)

Chain of PIM1 (human) (P11309 whole entry, looked up): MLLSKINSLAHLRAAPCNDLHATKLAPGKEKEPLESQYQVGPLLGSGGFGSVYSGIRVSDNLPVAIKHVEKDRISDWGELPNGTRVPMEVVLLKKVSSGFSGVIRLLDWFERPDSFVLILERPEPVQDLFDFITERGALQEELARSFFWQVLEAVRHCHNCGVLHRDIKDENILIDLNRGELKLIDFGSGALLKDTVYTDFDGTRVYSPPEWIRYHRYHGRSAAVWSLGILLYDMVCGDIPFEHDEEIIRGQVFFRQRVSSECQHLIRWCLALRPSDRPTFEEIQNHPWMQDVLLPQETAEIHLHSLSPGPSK
Chain of CLK2 (human) (P49760 whole entry, looked up): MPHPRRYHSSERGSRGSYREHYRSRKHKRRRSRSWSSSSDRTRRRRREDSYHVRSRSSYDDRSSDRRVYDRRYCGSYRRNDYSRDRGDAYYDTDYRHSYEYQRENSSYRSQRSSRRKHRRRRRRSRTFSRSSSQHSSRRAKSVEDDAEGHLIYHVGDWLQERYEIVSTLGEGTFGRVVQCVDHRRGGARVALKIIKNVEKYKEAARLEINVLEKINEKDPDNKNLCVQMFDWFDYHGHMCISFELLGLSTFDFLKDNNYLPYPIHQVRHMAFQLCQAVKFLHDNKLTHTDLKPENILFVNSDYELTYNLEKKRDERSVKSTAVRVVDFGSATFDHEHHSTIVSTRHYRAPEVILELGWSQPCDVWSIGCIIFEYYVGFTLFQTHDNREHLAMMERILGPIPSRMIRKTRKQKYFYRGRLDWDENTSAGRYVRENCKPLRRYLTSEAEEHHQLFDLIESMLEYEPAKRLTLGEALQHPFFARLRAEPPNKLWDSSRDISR
Chain of IKBKE (human) (Q14164 whole entry, looked up): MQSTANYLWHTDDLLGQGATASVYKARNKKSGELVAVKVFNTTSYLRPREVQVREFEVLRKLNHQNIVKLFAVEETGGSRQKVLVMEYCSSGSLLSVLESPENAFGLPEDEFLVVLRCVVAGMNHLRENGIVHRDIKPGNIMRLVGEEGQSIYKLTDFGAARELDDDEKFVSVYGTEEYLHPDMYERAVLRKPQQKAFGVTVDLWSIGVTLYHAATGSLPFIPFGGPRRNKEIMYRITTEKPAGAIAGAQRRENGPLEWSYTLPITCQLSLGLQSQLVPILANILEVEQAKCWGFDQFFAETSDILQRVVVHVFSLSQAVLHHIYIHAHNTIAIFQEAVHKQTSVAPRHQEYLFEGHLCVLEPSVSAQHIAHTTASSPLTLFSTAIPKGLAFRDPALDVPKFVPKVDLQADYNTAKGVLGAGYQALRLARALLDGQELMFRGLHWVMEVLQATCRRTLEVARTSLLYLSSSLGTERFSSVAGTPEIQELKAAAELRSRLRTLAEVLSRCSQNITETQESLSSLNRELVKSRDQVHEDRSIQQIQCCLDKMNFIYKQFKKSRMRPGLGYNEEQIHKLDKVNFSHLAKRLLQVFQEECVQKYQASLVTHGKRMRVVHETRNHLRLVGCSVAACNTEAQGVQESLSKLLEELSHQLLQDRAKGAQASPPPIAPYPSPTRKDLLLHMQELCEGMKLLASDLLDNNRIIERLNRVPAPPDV
Chain of PRKD2 (human) (Q9BZL6 whole entry, looked up): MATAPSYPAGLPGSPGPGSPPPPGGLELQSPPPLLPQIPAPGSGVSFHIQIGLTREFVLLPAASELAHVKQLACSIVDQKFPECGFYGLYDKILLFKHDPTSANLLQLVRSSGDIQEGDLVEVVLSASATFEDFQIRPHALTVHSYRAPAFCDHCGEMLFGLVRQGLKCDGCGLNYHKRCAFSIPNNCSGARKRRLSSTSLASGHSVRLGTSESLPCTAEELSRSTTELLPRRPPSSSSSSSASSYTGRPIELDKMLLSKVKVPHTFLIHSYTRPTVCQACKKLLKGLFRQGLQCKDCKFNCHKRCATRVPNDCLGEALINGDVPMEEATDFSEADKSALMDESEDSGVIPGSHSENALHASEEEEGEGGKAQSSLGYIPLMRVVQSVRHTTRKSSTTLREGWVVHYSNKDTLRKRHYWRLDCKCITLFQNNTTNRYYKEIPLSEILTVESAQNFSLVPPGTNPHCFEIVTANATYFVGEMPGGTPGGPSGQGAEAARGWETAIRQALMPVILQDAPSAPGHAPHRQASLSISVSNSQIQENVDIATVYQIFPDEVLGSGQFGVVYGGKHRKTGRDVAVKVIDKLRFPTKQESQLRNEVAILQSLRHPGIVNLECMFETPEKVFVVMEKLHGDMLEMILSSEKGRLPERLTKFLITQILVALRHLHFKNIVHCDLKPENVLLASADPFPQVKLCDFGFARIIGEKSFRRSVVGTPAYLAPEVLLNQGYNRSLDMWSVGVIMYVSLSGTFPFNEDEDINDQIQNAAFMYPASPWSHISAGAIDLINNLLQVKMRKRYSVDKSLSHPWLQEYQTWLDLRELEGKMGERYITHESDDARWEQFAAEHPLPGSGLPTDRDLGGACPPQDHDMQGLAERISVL
Chain of PAK4 (human) (O96013 whole entry, looked up): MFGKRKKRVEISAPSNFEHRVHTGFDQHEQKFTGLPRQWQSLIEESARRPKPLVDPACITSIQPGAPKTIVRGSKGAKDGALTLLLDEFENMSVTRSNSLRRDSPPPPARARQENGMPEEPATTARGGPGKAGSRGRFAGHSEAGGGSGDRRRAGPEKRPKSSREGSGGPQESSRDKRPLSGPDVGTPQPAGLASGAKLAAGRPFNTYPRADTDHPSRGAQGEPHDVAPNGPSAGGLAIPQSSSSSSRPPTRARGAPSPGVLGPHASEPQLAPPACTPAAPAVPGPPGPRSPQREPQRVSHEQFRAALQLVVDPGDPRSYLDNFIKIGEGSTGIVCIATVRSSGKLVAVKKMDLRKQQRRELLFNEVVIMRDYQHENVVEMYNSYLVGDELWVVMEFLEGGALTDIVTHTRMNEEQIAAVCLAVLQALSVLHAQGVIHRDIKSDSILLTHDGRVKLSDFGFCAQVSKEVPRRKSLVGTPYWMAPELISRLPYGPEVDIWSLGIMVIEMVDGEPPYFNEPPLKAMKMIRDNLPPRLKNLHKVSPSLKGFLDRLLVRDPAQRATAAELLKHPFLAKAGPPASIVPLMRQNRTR
Chain of MAP3K9 (human) (P80192 whole entry, looked up): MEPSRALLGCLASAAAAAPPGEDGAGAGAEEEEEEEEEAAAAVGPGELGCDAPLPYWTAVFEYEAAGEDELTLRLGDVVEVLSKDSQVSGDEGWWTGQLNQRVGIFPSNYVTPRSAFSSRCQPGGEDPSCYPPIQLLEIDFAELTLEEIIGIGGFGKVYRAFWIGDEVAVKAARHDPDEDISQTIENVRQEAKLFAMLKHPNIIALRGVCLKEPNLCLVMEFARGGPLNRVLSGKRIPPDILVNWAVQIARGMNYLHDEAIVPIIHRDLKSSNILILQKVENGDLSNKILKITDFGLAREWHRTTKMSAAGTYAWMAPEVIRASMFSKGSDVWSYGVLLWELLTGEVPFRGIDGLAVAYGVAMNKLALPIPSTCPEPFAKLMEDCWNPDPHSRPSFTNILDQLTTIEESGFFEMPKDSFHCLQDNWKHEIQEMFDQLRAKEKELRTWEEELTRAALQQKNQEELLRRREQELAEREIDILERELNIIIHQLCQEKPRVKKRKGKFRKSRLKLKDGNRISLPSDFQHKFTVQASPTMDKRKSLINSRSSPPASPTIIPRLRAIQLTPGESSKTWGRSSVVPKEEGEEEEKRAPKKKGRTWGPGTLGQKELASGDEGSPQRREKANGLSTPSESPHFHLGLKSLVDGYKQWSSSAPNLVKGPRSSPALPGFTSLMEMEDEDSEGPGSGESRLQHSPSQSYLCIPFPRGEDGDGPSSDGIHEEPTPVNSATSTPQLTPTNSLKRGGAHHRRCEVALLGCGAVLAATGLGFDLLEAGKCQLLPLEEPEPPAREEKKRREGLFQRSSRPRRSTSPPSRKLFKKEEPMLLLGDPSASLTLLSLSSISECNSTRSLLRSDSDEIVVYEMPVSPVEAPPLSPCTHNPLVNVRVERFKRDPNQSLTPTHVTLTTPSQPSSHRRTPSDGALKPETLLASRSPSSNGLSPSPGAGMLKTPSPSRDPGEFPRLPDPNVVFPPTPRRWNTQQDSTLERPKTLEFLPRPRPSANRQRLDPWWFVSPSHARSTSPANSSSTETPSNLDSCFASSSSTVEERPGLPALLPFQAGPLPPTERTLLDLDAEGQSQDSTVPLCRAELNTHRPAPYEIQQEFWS
Chain of HIPK4 (human) (Q8NE63 whole entry, looked up): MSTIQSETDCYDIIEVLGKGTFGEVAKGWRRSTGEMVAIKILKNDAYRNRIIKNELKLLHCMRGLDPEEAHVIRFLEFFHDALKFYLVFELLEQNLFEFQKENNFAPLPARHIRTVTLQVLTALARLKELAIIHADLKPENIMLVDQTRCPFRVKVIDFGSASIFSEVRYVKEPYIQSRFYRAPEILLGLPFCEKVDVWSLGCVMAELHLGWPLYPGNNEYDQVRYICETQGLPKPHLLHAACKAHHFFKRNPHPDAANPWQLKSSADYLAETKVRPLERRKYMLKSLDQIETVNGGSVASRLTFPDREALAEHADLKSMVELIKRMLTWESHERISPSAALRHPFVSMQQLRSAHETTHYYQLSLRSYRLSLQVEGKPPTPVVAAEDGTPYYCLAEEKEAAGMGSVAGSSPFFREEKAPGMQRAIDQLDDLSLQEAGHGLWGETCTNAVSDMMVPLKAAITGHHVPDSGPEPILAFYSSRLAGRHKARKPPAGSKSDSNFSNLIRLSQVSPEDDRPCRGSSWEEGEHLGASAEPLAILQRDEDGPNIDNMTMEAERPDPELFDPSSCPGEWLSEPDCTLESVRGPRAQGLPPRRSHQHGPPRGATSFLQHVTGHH

SMILES: O=C1NC(=O)/C(=C/c2ccc3c(c2)OC(F)(F)O3)S1
- residual activity [1]: 74.8%
- residual activity [2]: 91.2%
- residual activity [3]: 90%
- residual activity [4]: 95.9%
- residual activity [5]: 96.2%
- residual activity [6]: 86%
- residual activity [7]: 109% and 95.6%
- residual activity [8]: 98.6%
- residual activity [9]: 102%
- residual activity [10]: 91.5%
- residual activity [11]: 101%
- residual activity [12]: 96.3%
- residual activity [13]: 101%
- residual activity [14]: 107%
- residual activity [15]: 99.5%
- residual activity [16]: 102%
- residual activity [17]: 84.7%
- residual activity [18]: 103%
- residual activity [19]: 95.7%
- residual activity [20]: 103%
- residual activity [21]: 110%
- residual activity [22]: 105%
- residual activity [23]: 94.4%
- residual activity [24]: 91.6%
- residual activity [25]: 96.6%
- residual activity [26]: 94.4%
- residual activity [27]: 91.9%
- residual activity [28]: 82.2%
- residual activity [29]: 93.4%
- residual activity [30]: 35.9%
- residual activity [31]: 101%
- residual activity [32]: 99.4%
- residual activity [33]: 95.4%
- residual activity [34]: 100%
- residual activity [35]: 99.4%
- residual activity [36]: 91.8%
- residual activity [37]: 91.5%
- residual activity [38]: 88.4%
- residual activity [39]: 29.9%
- residual activity [40]: 103%
- residual activity [41]: 95.7%

SMILES: CCN(CC)CCNC(=O)c1c(C)[nH]c(/C=C2\C(=O)Nc3ccc(Cl)cc32)c1C
- residual activity [1]: 70.7%
- residual activity [2]: 82.8%
- residual activity [3]: 76.7%
- residual activity [4]: 88%
- residual activity [5]: 86.9%
- residual activity [6]: 47.7%
- residual activity [7]: 64.2% and 76.4%
- residual activity [8]: 7.11%
- residual activity [9]: 31.9%
- residual activity [10]: 86.3%
- residual activity [11]: 66.9%
- residual activity [12]: 109%
- residual activity [13]: 29.4%
- residual activity [14]: 25.2%
- residual activity [15]: 86.1%
- residual activity [16]: 101%
- residual activity [17]: 45.5%
- residual activity [18]: 15.1%
- residual activity [19]: 100%
- residual activity [20]: 101%
- residual activity [21]: 81.9%
- residual activity [22]: 93.7%
- residual activity [23]: 103%
- residual activity [24]: 98.8%
- residual activity [25]: 15.8%
- residual activity [26]: 16.7%
- residual activity [27]: 98.2%
- residual activity [28]: 62.8%
- residual activity [29]: 28.7%
- residual activity [30]: 91.7%
- residual activity [31]: 49.6%
- residual activity [32]: 88.3%
- residual activity [33]: 27.8%
- residual activity [34]: 96.7%
- residual activity [35]: 61.7%
- residual activity [36]: 2.06%
- residual activity [37]: 11.9%
- residual activity [38]: 75.7%
- residual activity [39]: 64.3%
- residual activity [40]: 1.44%
- residual activity [41]: 56.1%

SMILES: CCOC(=O)c1c(C)[nH]c(/C=C2\C(=O)Nc3ccccc32)c1C
- residual activity [1]: 128%
- residual activity [2]: 98.5%
- residual activity [3]: 71.8%
- residual activity [4]: 80.3%
- residual activity [5]: 87.6%
- residual activity [6]: 95.3%
- residual activity [7]: 78.3% and 92.8%
- residual activity [8]: 82.2%
- residual activity [9]: 67.3%
- residual activity [10]: 104%
- residual activity [11]: 95.9%
- residual activity [12]: 96.7%
- residual activity [13]: 93.5%
- residual activity [14]: 88.9%
- residual activity [15]: 71.2%
- residual activity [16]: 88.4%
- residual activity [17]: 87.6%
- residual activity [18]: 86.4%
- residual activity [19]: 97.5%
- residual activity [20]: 81.4%
- residual activity [21]: 85.1%
- residual activity [22]: 92.3%
- residual activity [23]: 98.6%
- residual activity [24]: 101%
- residual activity [25]: 86%
- residual activity [26]: 87.4%
- residual activity [28]: 93.7%
- residual activity [29]: 46.3%
- residual activity [30]: 95.8%
- residual activity [31]: 61.6%
- residual activity [32]: 94%
- residual activity [33]: 89.7%
- residual activity [34]: 87.5%
- residual activity [35]: 90.2%
- residual activity [36]: 62.3%
- residual activity [37]: 97.1%
- residual activity [38]: 98.6%
- residual activity [39]: 94.7%
- residual activity [40]: 28.6%
- residual activity [41]: 98.5%

SMILES: CCN(CC)CCNC(=O)c1c(C)[nH]c(/C=C2\C(=O)Nc3ccc(F)cc32)c1C
- residual activity [1]: 65%
- residual activity [2]: 104%
- residual activity [3]: 80.9%
- residual activity [4]: 84.5%
- residual activity [6]: 52.1%
- residual activity [7]: 65.3% and 88.8%
- residual activity [8]: 31.2%
- residual activity [9]: 48.7%
- residual activity [10]: 94.3%
- residual activity [11]: 72.9%
- residual activity [12]: 106%
- residual activity [13]: 45.6%
- residual activity [14]: 27.4%
- residual activity [15]: 94.8%
- residual activity [16]: 109%
- residual activity [17]: 82.9%
- residual activity [18]: 35.5%
- residual activity [19]: 99.9%
- residual activity [20]: 107%
- residual activity [21]: 87.4%
- residual activity [22]: 95%
- residual activity [23]: 93.2%
- residual activity [25]: 13.6%
- residual activity [26]: 10.4%
- residual activity [27]: 88.6%
- residual activity [28]: 93.1%
- residual activity [29]: 8.74%
- residual activity [30]: 94.4%
- residual activity [32]: 91%
- residual activity [33]: 50.5%
- residual activity [34]: 92%
- residual activity [35]: 74.7%
- residual activity [36]: 2.75%
- residual activity [37]: 21.1%
- residual activity [39]: 92.2%
- residual activity [40]: 3.34%
- residual activity [41]: 76.1%

SMILES: Nc1ncnc2[nH]nc(Nc3ccc(F)cc3)c12
- residual activity [1]: 90.4%
- residual activity [2]: 85.9%
- residual activity [3]: 104%
- residual activity [4]: 90.1%
- residual activity [5]: 108%
- residual activity [6]: 101%
- residual activity [7]: 95.7% and 96.9%
- residual activity [8]: 70.5%
- residual activity [9]: 96.9%
- residual activity [10]: 103%
- residual activity [11]: 90.8%
- residual activity [12]: 91.7%
- residual activity [13]: 100%
- residual activity [14]: 45.4%
- residual activity [15]: 121%
- residual activity [16]: 96.2%
- residual activity [17]: 92.4%
- residual activity [18]: 89.8%
- residual activity [19]: 108%
- residual activity [20]: 109%
- residual activity [21]: 88.5%
- residual activity [22]: 97.1%
- residual activity [23]: 105%
- residual activity [24]: 105%
- residual activity [25]: 92.4%
- residual activity [26]: 97.7%
- residual activity [27]: 94.9%
- residual activity [28]: 96.5%
- residual activity [29]: 93.5%
- residual activity [30]: 95.5%
- residual activity [31]: 100%
- residual activity [32]: 104%
- residual activity [33]: 96.6%
- residual activity [34]: 93.7%
- residual activity [35]: 98.5%
- residual activity [36]: 95.5%
- residual activity [37]: 81.3%
- residual activity [38]: 90.3%
- residual activity [40]: 89.6%
- residual activity [41]: 112%
